Laboratory results: US20050002991A1, “Prophylactic agent of hypertension containing a conjugated fatty acid as an effective ingredient and the use thereof” (RINORU OIL MILLS CO., LTD., priority 2003, published 2005)
Marks after values point to notes of the source that are not given here.

System: OLETF rats
Test: Systolic blood pressure of OLETF rats fed CLA-supplemented diet (indirect tail cuff method)
Format: in vivo, rat
Settings: male OLETF rats; for Systolic blood pressure compared with control group (in words): 0.5% in diet, up to 3 weeks, control = high linoleic safflower oil; for Blood pressure, initial value / Blood pressure, 1 Week / Blood pressure, 2 Weeks / Blood pressure, 3 Weeks: systolic; for Blood pressure, initial value: baseline before feeding the diet supplemented with 0.5% of the substance; for Blood pressure, 1 Week / Blood pressure, 2 Weeks / Blood pressure, 3 Weeks: diet supplemented with 0.5% of the substance; for Blood pressure, 1 Week: 1 week of feeding; for Blood pressure, 2 Weeks: 2 weeks of feeding; for Blood pressure, 3 Weeks: 3 weeks of feeding
Text: Male OLETF rats (7 weeks old), an animal model of non-insulin dependent diabetes mellitus, were assigned to three groups that were fed ad libitum with a semisynthetic diet (AIN-76) supplemented with 0.5% high linoleic safflower oil (Rinoru Oil Mills Co., Ltd.; control group), or a semisynthetic diet supplemented with 0.5% 9cis,11trans-CLA, and a semisynthetic diet supplemented with 0.5% 10trans,12cis-CLA for three weeks. […]
It has been found from the above-described results that systolic blood pressure is lowered in rats fed with the 10trans, 12cis-CLA.

Compound	Systolic blood pressure compared with control group (in words)	Systolic blood pressure compared with control group (in words) (listed as 10trans,12cis-CLA)	Blood pressure, initial value [mmHg]	Blood pressure, 1 Week [mmHg]	Blood pressure, 2 Weeks	Blood pressure, 3 Weeks
CCCCC/C=C\C=C\CCCCCCCCC(=O)O [10trans, 12cis-CLA, 10trans,12cis-CLA]	lowered	significantly suppressed	106 ± 4	125 ± 6	128 ± 5^b mmHg	132 ± 3^b mmHg
CCCCCC/C=C/C=C\CCCCCCCC(=O)O [9cis, 11trans-CLA, 9cis,11trans-CLA]			103 ± 3	131 ± 3	148 ± 4^a mmHg	154 ± 4^a mmHg
conjugated linoleic acid [CLA]	tends to lower					
